# Legend:
# U138MG (glioblastoma) = experiment: WST-1 cell viability assay, 48-h incubation; format: cell-based, human; settings: WST-1, 48 h, vs. vehicle, even at 3 µM in some (unnamed) cell lines
# Protocol: (§1) To test the biological activity of the thia-analogous indirubin N-glycosides that are the focus of the present work, the effects of KD87 and KD85 and their non-glycosylated parent compound KD88 on the viability of various tumor cell lines were initially investigated. The corresponding analyses were performed using the cell lines A375 (melanoma), A431 (skin squamous cell carcinoma), A549 (non-small cell lung carcinoma), U251MG (glioblastoma), and U138MG (glioblastoma).
# (§2) Figure 2 Effect of increasing concentrations of KD87 (A), KD85 (B), and KD88 (C) on viability of various cancer cells. A375 (melanoma; black columns), A431 (skin squamous cell carcinoma; dark grey columns), A549 (non-small cell lung carcinoma; grey columns), U251MG (glioblastoma; light grey columns), or U138MG (glioblastoma; white columns) were incubated for 48 h with the appropriate compounds or vehicle followed by determination of cell viability by WST-1 assay. Percent control represents comparison with vehicle-treated cells (100%) in the absence of test substance. Values are mean ± standard error of the mean (SEM) of n = 15 in all panels, except n = 14 for A375 and A431 cells in panel B and n = 14–15 for A375 cells in panel C, from four (A375, A431) or five (A549, U251MG, U138MG) independent experiments. * p ≤ 0.05, ** p ≤ 0.01, *** p ≤ 0.001, **** p ≤ 0.0001 vs. vehicle control; one-way ANOVA with Dunnett’s post hoc test.
# (§3) The human melanoma cell line A375 (#300110; RRID:CVCL_0132) as well as the human skin epidermoid carcinoma cell line A431 (#300112; RRID:CVCL_0037) were purchased from CLS Cell Lines Service GmbH (Eppelheim, Germany). The human glioblastoma cell line U251MG (#09063001; RRID:CVCL_0021) was from Sigma-Aldrich Corporation. The human glioblastoma cell line U138MG (#ACC 291; RRID: CVCL_0020) and the human lung carcinoma cell line A549 (#ACC 107, RRID:CVCL_0023) were purchased from DSMZ (Deutsche Sammlung von Mikroorganismen und Zellkulturen GmbH, Braunschweig, Germany).
# (§4) Cells were cultured in high-glucose DMEM (with GlutaMAX™-I: A375, A431; with UltraGlutamine^TM I: A549, U251MG, U138MG) supplemented with 10% heat-inactivated FBS, 100 U/mL penicillin, and 100 μg/mL streptomycin and grown in a humidified incubator at 37 °C and 5% CO2. For viability analyses, cells were seeded in 96-well plates at a density of 5000 cells per well in DMEM containing 10% heat-inactivated FBS and cultured for 24 h. All cell experiments with the specific substances were performed in serum-free DMEM supplemented with 100 U/mL penicillin and 100 μg/mL streptomycin, applied after washing the cells with DPBS. The test substances were dissolved in DMSO. The final concentration of DMSO in the incubation media of test substance- and vehicle-treated cells was 1% (v/v).
# (§5) After completion of the 48-h incubation, WST-1 reagent (Sigma, Taufkirchen, Germany) was added to the cells to achieve a final dilution of 1:10, and the cells were incubated for an additional 20 min before absorbance was measured at 450 nm, reference wavelength […], using a microplate reader.
# U251MG (glioblastoma) = experiment: WST-1 cell viability assay, 48-h incubation; format: cell-based, human; settings: WST-1, 48 h, vs. vehicle, even at 3 µM in some (unnamed) cell lines
# Protocol: as §1, §2, §3, §4, §5
# [1] = Storage stability in human plasma, LC-MS/MS after plasma extraction; format: in vitro ADME; settings: for Stability 4 °C / Stability AS (autosampler) / Stability −20 °C / Stability BT (benchtop): 24 h; for Stability FT (freeze-thaw): freeze-thaw cycles; for Stability −80 °C 90 d: long-term freezing; for Stability BT (benchtop): room temperature
# Protocol: (§6) To assess stability, low and high concentrations of all analytes were subjected to different storage conditions. […] For determination of long-term stability, samples were stored in either plasma or DMEM at –80 °C for 90 and 91 days, respectively. To measure short-term stability, samples were stored at room temperature, in an autosampler, at 4 °C, and at –20 °C for 24 h. In addition, freeze-thaw cycles were performed according to FDA guidance for the standard solutions. For comparison, at least three freshly prepared samples were prepared for each concentration level. With the exception of autosampler stability, the internal standard was always added to all samples before sample processing was started.
# (§7) Liquid-liquid extraction was performed identically for plasma and DMEM samples. After addition of the 1.0 µM internal standard, 50 µL of 0.8 M alkaline carbonate buffer was added. The extraction was performed once with 890 µL ethyl acetate. Tubes were then shaken for 10 min at 1400 rpm using a Thermomixer 5436 (Eppendorf AG, Hamburg, Germany) followed by centrifugation for 5 min at 14,000 rpm using a Centrifuge 5415 C (Eppendorf AG, Hamburg, Germany). Subsequently, 850 µL of the supernatant was transferred to a new tube and evaporated to dryness for 35 min at 35 °C (8 min heating time) using a SpeedVac SPD130DLX (Thermo Fisher Scientific, Asheville, NC, USA). Reconstitution was performed with 200 µL of a acetonitrile/water/H2SO4 [3/0.5/0.5] mixture, shaken at 1400 rpm for 5 min, and centrifuged again at 14,000 rpm for 5 min. Finally, 155 µL of the sample was transferred to an LC vial and analyzed.
# (§8) To assess stability, low and high concentrations of all analytes were exposed to different storage conditions. To determine long-term stability, samples were stored in either plasma or DMEM at −80 °C for 90 and 91 days, respectively. To determine short-term stability, samples were stored for 24 h on the bench at room temperature, in the autosampler, at 4 °C, and at −20 °C. In addition, freeze-thaw cycles were performed for the standard solutions according to FDA guidance. At least three freshly prepared samples per concentration level were prepared for comparison. With the exception of the stability test in the autosampler, the internal standard was always added to all samples before sample processing was started. However, to avoid concentration fluctuations due to possible degradation of the analytes, stock solutions were prepared twice a week and stored at −20 °C. Each storage condition was examined in the dark. For all conditions studied, n = 3–6 replicates were prepared.
# [2] = Storage stability in DMEM, LC-MS/MS after DMEM extraction; format: physicochemical; settings: for Stability 4 °C / Stability AS (autosampler) / Stability −20 °C / Stability BT (benchtop): 24 h; for Stability FT (freeze-thaw): freeze-thaw cycles; for Stability −80 °C 91 d: long-term freezing; for Stability BT (benchtop): room temperature
# Protocol: as §6
# Regarding the medium, validation procedures were performed with high-glucose DMEM supplemented with 100 U/mL penicillin and 100 μg/mL streptomycin, but not with FBS. With the exception of selectivity, where both media (GlutaMAX™-I or UltraGlutamine^TM I supplement) were tested, only Gibco™ DMEM with GlutaMAX™-I was used for all other analytical procedures.
# as §7, §8
SMILES,concentration from which significant cytotoxic effects start (U138MG (glioblastoma)) [µM],concentration from which significant cytotoxic effects start (U251MG (glioblastoma)) [µM],Stability 4 °C ([1]; 3.0 nM) [%],Stability AS (autosampler) ([1]; 3.0 nM) [%],Stability −20 °C ([1]; 3.0 nM) [%],Stability FT (freeze-thaw) ([1]; 3.0 nM) [%],Stability −80 °C 90 d ([1]; 3.0 nM) [%],Stability BT (benchtop) ([1]; 3.0 nM) [%],Stability 4 °C ([1]; 250 nM) [%],Stability AS (autosampler) ([1]; 250 nM) [%],Stability −20 °C ([1]; 250 nM) [%],Stability FT (freeze-thaw) ([1]; 250 nM) [%],Stability −80 °C 90 d ([1]; 250 nM) [%],Stability BT (benchtop) ([1]; 250 nM) [%],Stability 4 °C ([2]; 3.0 nM) [%],Stability AS (autosampler) ([2]; 3.0 nM) [%],Stability −20 °C ([2]; 3.0 nM) [%],Stability FT (freeze-thaw) ([2]; 3.0 nM) [%],Stability −80 °C 91 d ([2]; 3.0 nM) [%],Stability BT (benchtop) ([2]; 3.0 nM) [%],also measured
"O=C1/C(=C2/C(=O)N([C@@H]3O[C@H](CO)[C@@H](O)[C@H](O)[C@H]3O)c3ccccc32)Sc2ccccc21 [KD87, 3-[3′-oxo-benzo[b]thiophen-2′-(Z)-ylidene]-1-(β-D-glucopyranosyl)-oxindole]",≤ 6,≤ 6,79.3 ± 2.4,80.8 ± 3.0,101.4 ± 3.4,98.3 ± 5.4,100.1 ± 8.4,64.4 ± 4.6,94.1 ± 5.6,73.7 ± 3.3,100.1 ± 0.7,99.7 ± 2.6,100.9 ± 3.6,77.8 ± 2.7,81.4 ± 3.3,101.2 ± 7.4,87.7 ± 3.2,98.3 ± 5.4,97.8 ± 6.0,104.9 ± 4.0,Stability 4 °C ([2]; 40 nM): 84.5 ± 2.1%; Stability AS (autosampler) ([2]; 40 nM): 81.7 ± 3.7%; Stability −20 °C ([2]; 40 nM): 84.2 ± 2.6%; Stability FT (freeze-thaw) ([2]; 40 nM): 101.9 ± 5.4%; Stability −80 °C 91 d ([2]; 40 nM): 92.3 ± 7.8%; Stability BT (benchtop) ([2]; 40 nM): 98.3 ± 1.1%
"O=C1/C(=C2/C(=O)N([C@@H]3O[C@H](CO)[C@@H](O)[C@H](O)[C@@H]3O)c3ccccc32)Sc2ccccc21 [KD85, 3-[3′-oxo-benzo[b]thiophene-2′-(Z)-ylidene]-1-(β-D-mannopyranosyl)-oxindole]",≤ 6,≤ 6,85.5 ± 2.2,71.8 ± 2.7,86.4 ± 3.5,99.4 ± 4.0,102.5 ± 5.2,64.4 ± 3.6,94.3 ± 5.7,73.1 ± 2.7,101.8 ± 3.2,99.1 ± 2.0,101.7 ± 1.1,76.0 ± 2.6,98.3 ± 2.2,75.6 ± 5.8,86.8 ± 1.8,99.4 ± 4.0,93.2 ± 6.9,115.3 ± 1.8,Stability 4 °C ([2]; 40 nM): 80.5 ± 1.8%; Stability AS (autosampler) ([2]; 40 nM): 71.6 ± 1.9%; Stability −20 °C ([2]; 40 nM): 81.9 ± 3.9%; Stability FT (freeze-thaw) ([2]; 40 nM): 99.9 ± 3.3%; Stability −80 °C 91 d ([2]; 40 nM): 92.7 ± 5.7%; Stability BT (benchtop) ([2]; 40 nM): 100.5 ± 1.9%
